In patent publication US6492389B1, “Small molecule inhibitors of BCL-2 proteins” (Thomas Jefferson University, priority 1998, dated 2002):
Entries after “also recorded” stand apart in the source; their conditions may differ.

Experiments:
[1] = biological target: T1, Bcl-2 protein (Homo sapiens, UniProt P10415); test: Bcl-2 competition binding assay (fluorescence polarization, Flu-1193 probe); conditions: for concentration-dependent competition binding: increasing compound concentrations, HA14-1 1 to 100 μM
T1 construct: purified soluble Bcl-2 proteins purchased from Santa Cruz Biotechnology, Inc., Calif; purchased Santa Cruz Biotechnology, Inc
T1 sequence (P10415 1-205 limits assumed): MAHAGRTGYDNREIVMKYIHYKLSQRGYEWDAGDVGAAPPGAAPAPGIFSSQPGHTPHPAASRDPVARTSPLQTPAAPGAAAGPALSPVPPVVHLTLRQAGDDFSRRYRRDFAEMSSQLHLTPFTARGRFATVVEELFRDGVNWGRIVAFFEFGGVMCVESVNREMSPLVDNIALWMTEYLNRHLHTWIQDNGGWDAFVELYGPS

[2] = test system: 697 cells; test: DNA fragmentation assay in 697 cells; type: cell-based, human; conditions: 50 μM, 48 hours
Protocol: The Bcl-transfected cells were incubated with Bcl-2 inhibitor test compounds at 50 μM for 24 hours and then examined for apoptosis by the following DNA fragmentation assay. Then the treated cells were washed in PBS, lysed in digestion buffer (100 mM NaCl, 10 mM Tris-Cl, pH8, 25 mM EDTA, pH 8, 0.5% SDS, 0.1 mg/ml proteinase K), and incubated overnight at 50° C. The samples were extracted three times with phenol-chloroform, precipitated with an equal volume isopropanol, and spun down for 15 minutes in a microcentrifuge at room temperature. The DNA precipitate was washed once with 70% ethanol and resuspended in TE buffer containing 200 μg/ml DNase-free RNase A (Boehringer Mannheim, Indianapolis, Ind.). Alter incubation at 37° C. for 30 min., the DNA was loaded into a 2% agarose mini-gel with 2 μg/ml ethidium bromide, and electrophoresis is run at 50 V for 2 hours in 0.5×TBE buffer. The gel was destained with water for 1 hour arid photographed under UV light.
First, the ethidium bromide stain concentration was 1 μg/ml instead of 2 μg/ml. Second, the cells for the assay comprised 697 cells. The 697 line is a human pre-B leukemia line with a t(1; 19) chromosomal translocation (no translocation involving Bcl-2). Bcl-2 is highly expressed in this line. The high expression of Bcl-2 in 697 cells was confirmed by protein immunoblot analysis (data not shown). […] DNA markers were phiX174 DNA with restriction endonuclease Hae III (Boehringer Mannheim, Indianapolis, Ind.). The cells were incubated with test compound at 50 μM concentration or Taxol at 5 μM concentration for 48 hours.

[3] = test system: HL-60 cell line transfected with Bcl-2; test: DNA fragmentation assay in Bcl-2-transfected HL-60 cells; type: cell-based, human; conditions: for DNA fragmentation (reversal of Bcl-2 block of apoptosis): 50 μM, 24 hours
[4] = test system: HL-60 neo line; test: Control apoptosis experiment in HL-60 neo line; type: cell-based, human; conditions: 50 μM
[5] = test system: 697 cells; conditions: positive control; cited from earlier work
[6] = test system: HL-60 cell line transfected with Bcl-2; conditions: 50 μM etoposide; cited from earlier work
[7] = test system: HL-60 cell line (parent line); conditions: 50 μM etoposide; cited from earlier work

With `COc1ccc(CCNC(=O)c2sc3c([N+](=O)[O-])cc(C(F)(F)F)cc3[n+]2[O-])cc1OC` [HA02] the concentration-dependent competition binding [1] was “clear concentration-dependent competition binding was observed”, the Kd ([1]; read-out: binding affinity (KD)) was 15 µM and the “DNA fragmentation / apoptosis induction” value [2] was “induced DNA fragmentation to various extents”.

With `O=C1c2ccccc2SC(c2ccccc2)C1CN1CCN(C(C(=O)O)C(=O)O)CC1` (stereo not shown) [HA03] the concentration-dependent competition binding [1] was “clear concentration-dependent competition binding was observed”.

With `Nc1nc(N)c2c(Oc3ccccc3)cccc2n1` [HA04] the concentration-dependent competition binding [1] was “clear concentration-dependent competition binding was observed” and the “DNA fragmentation / apoptosis induction” value [2] was “induced DNA fragmentation to various extents”.

With `COc1cc(C2c3cc4c(cc3OC(N3CCOCC3)C2C)OCO4)cc(OC)c1O` (stereo not shown) [HA11-57, 2,6-DI-MEO-4-(7-ME-6-MORPHOLIN-4-YL-6H- [1,3]DIOXOLO[4,5-G]CHROMEN-8-YL)-PHENOL] the “DNA fragmentation (reversal of Bcl-2 block of apoptosis)” value [3] was “DNA fragmentation is apparent”.

With `O=C1Nc2ccccc2/C1=C/c1ccc[nH]1` [HA12-16] the “DNA fragmentation / apoptosis induction” value ([2]; listed as HA01) was “induced DNA fragmentation to various extents; also recorded: induced apoptosis in the 697 cells” and the “apoptosis induction in cells not regulated by Bcl-2” value [4] was “lack of effect in inducing apoptosis”.

For `CC(=O)c1cc(C(=O)c2ccccc2)n2ccc(Cc3ccc([N+](=O)[O-])cc3)cc12` [HA13], the “DNA fragmentation (reversal of Bcl-2 block of apoptosis)” value [3] was “DNA fragmentation is apparent”.

With `CCOC(=O)C1=C(N)Oc2ccc(Br)cc2C1C(C#N)C(=O)OCC` (stereo not shown) [HA14-1, ETHYL 2-AMINO-6- BROMO-4-(1-CYANO-2- ETHOXY-2-OXOETHYL)- 4H-CHROMENE-3- CARBOXYLATE] the concentration-dependent competition binding [1] was “clear concentration-dependent competition binding was observed” and the “DNA fragmentation after fluoromethyl ketone pretreatment” value ([3]; 100 μM fluoromethyl ketone 2 hours, then 50 μM HA14-1 24 hours) was “neutralize the action of HA14-1”.

For `COC1OC2COC(c3ccccc3)O[C@H]2[C@@H](OC(C)=O)[C@H]1OS(=O)(=O)c1ccccc1` (stereo partly shown) [HA14], the “DNA fragmentation (reversal of Bcl-2 block of apoptosis)” value [3] was “DNA fragmentation is apparent”.

In the case of `CC(=O)O[C@H]1C(=O)[C@@]2(C)[C@H]([C@H](OC(=O)c3ccccc3)[C@]3(O)C[C@H](OC(=O)[C@H](O)[C@@H](NC(=O)c4ccccc4)c4ccccc4)C(C)=C1C3(C)C)[C@]1(OC(C)=O)CO[C@@H]1C[C@@H]2O` [Taxol], the “apoptosis induction in 697 cells (known)” value [5] is listed as “known to induce apoptosis in 697 cells”.

In the case of `COc1cc([C@@H]2c3cc4c(cc3[C@@H](O[C@@H]3O[C@@H]5CO[C@@H](C)O[C@H]5[C@H](O)[C@H]3O)[C@H]3COC(=O)[C@H]23)OCO4)cc(OC)c1O` [etoposide], the “sensitivity of Bcl-2-transfected cells to apoptosis-inducing drug” value [6] is listed as “resistant” and the “sensitivity of cells to apoptosis-inducing drug” value [7] is listed as “sensitive”.
